The nature of the data set: HILIC, Waters ACQUITY UPLC BEH HILIC, 150 × 2.1 mm, 1.7 µm, 40 °C, 0.6 mL/min, estimated dead time 0.55 min; A: water + 0.1% formic acid + 20 mM ammonium formate, pH 3.5; B: acetonitrile + 0.1% formic acid, pH 3; gradient (min/%B) 0/95 0.1/95 4.6/80 5.5/50 7.0/50 7.1/95 7.2/95 7.3/95 7.4/95 7.5/95 7.6/95 7.7/95 7.8/95 12.50/95 12.65/95. Particulars: stereoisomer not certain.
On to `c1cncc(C2CCCN2)c1` (configuration not stated) [Nornicotine], for which the LC retention time was 4.22 min.
In the case of `NC(Cc1ccc(OS(=O)(=O)O)cc1)C(=O)O` (configuration not stated) [O-Sulfotyrosine], the LC retention time is 3.2 min.
As for `CCCCCCCC(=O)OC(CC(=O)[O-])C[N+](C)(C)C` (configuration not stated) [Octanoylcarnitine CAR(C8:0)], the figure is 4.13 min; as for `CCCCCCCCCCCCCCCC(=O)OC(CC(=O)[O-])C[N+](C)(C)C` (configuration not stated) [Palmitoylcarnitine CAR(C16:0)], 3.78 min.
As for `CC(C)(CO)C(O)C(=O)NCCC(=O)O` (configuration not stated) [Pantothenic acid], the LC retention time is 1.13 min.
For `Cn1c(=O)[nH]c2ncn(C)c2c1=O` [Paraxanthine], the LC retention time was 0.948 min.
Under `C[N+](C)(C)CC(O)(CC(=O)[O-])C(=O)Cc1ccccc1` (configuration not stated) [Phenylacetyl carnitine] stands 4.47 min.
As to `NC(Cc1ccccc1)C(=O)O` (configuration not stated) [Phenylalanine], the LC retention time is 3.78 min.
As for `NCCc1ccccc1` [Phenylethylamine], the LC retention time was 2.91 min.
As for `O=C(O)C1CCCCN1` (configuration not stated) [Pipecolic acid], the figure is 4.48 min.
On to `C[N+]1(C)CCCC1C(=O)[O-]` (configuration not stated) [Proline Betaine], for which the LC retention time is 4.91 min.
For `O=C(O)C1CCCN1` (configuration not stated) [Proline], the LC retention time is 4.46 min.
Regarding `CCC(=O)OC(CC(=O)[O-])C[N+](C)(C)C` (configuration not stated) [Propionylcarnitine CAR(3:0)], the LC retention time was 4.82 min.
`O=c1[nH]cc(C2OC(CO)C(O)C2O)c(=O)[nH]1` (configuration not stated) [Pseudouridine]: the LC retention time is 1.25 min.
For the compound `NC(CCCCn1c(C=O)ccc1CO)C(=O)O` (configuration not stated) [Pyralline], the LC retention time was 4.28 min.
As for `C=CC1CN2CCC1CC2C(O)c1ccnc2ccc(OC)cc12` (configuration not stated) [Quinine], the LC retention time was 3.03 min.
`C[S+](CCC(N)C(=O)O)CC1OC(n2cnc3c(N)ncnc32)C(O)C1O` (configuration not stated) [S-Adenosylmethionine]: the LC retention time is 6.25 min.
Under `CCCCCCCCCCCCCCCCCC(=O)OC(CC(=O)[O-])C[N+](C)(C)C` (configuration not stated) [Stearoylcarnitine CAR(18:0)] stands 3.74 min; under `OCC1OC(OC2(CO)OC(CO)C(O)C2O)C(O)C(O)C1O` (configuration not stated) [Sucrose], 2.27 min.
On to `NCCS(=O)(=O)O` [Taurine], for which the LC retention time was 2.61 min.
As for `CC(CCC(=O)NCCS(=O)(=O)O)C1CCC2C3C(O)CC4CC(O)CCC4(C)C3CC(O)C12C` (configuration not stated) [Taurocholic Acid], the LC retention time was 2.47 min.
Regarding `CC(CCC(=O)NCCS(=O)(=O)O)C1CCC2C3CCC4CC(O)CCC4(C)C3CC(O)C12C` (configuration not stated) [Taurodeoxycholic Acid], the LC retention time is 1.81 min.
For `CC(CCC(=O)NCCS(=O)(=O)O)C1CCC2C3C(O)CC4CC(O)CCC4(C)C3CCC12C` (configuration not stated) [Tauroursodeoxycholic acid], the LC retention time is 1.75 min.
As for `CCCCCCCCCCCCCC(=O)OC(CC(=O)[O-])C[N+](C)(C)C` (configuration not stated) [Tetradecanoylcarnitine CAR(14:0)], the figure is 3.78 min; as for `Cc1ncc(C[n+]2csc(CCO)c2C)c(N)n1` [Thiamine], 5.49 min.
Consider `CC=C(C)C(=O)OC(CC(=O)[O-])C[N+](C)(C)C` (configuration not stated) [Tiglylcarnitine CAR(5:1)], for which the LC retention time is 4.54 min.
For the compound `C[n+]1cccc(C(=O)[O-])c1` [Trigonelline], the LC retention time was 4.85 min.
In the case of `C[N+](C)(C)[O-]` [Trimethylamine N-oxide], the LC retention time was 4.18 min.
With `CC(=O)C[N+](C)(C)C` [Trimethylaminoacetone], the LC retention time was 3.51 min.
Take `NCCc1c[nH]c2ccccc12` [Tryptamine]: the LC retention time was 2.79 min.
Consider `C[N+](C)(C)C(Cc1c[nH]c2ccccc12)C(=O)[O-]` (configuration not stated) [Tryptophan betaine], for which the LC retention time is 3.91 min.
On to `NC(Cc1c[nH]c2ccccc12)C(=O)O` (configuration not stated) [Tryptophan], for which the LC retention time was 3.82 min.
Under `O=C(O)C=Cc1cnc[nH]1` [Urocanic acid] stands 1.3 min; under `CCCCC(=O)OC(CC(=O)[O-])C[N+](C)(C)C` (configuration not stated) [Valerylcarnitine], 4.39 min; under `CC(=O)CC(c1ccccc1)c1c(O)c2ccccc2oc1=O` (configuration not stated) [Warfarin], 0.673 min.
As for `O=c1[nH]c(=O)c2[nH]cnc2[nH]1` [Xanthine], the figure is 1.15 min; as for `C[N+](C)(C)CCOP(=O)([O-])OCC(O)CO` (configuration not stated) [a-Glycerophosphocholine], 6.02 min.
